According to paper PMC7719179, “Small molecule inhibition of Dynamin-dependent endocytosis targets multiple niche signals and impairs leukemia stem cells” (Nature Communications, 2020):
Values joined by “and” are separate entries in the source; they are usually repeats but may differ in a detail not shown here. Equal entries are not always repeated. Where two headings read alike, the source gives them in different places.

Experiments:
[1] = tested on: DN3a T-cell progenitors of Lmo2^Tg mice; assay: Thymocyte populations (DN3a, DN1-DN4) in the thymus of treated Lmo2^Tg mice; format: in vivo, mouse
Experimental: The synthesis of Dynole 34-2 and Dyngo 4a compounds was performed as previously described[32],[33] and was kindly provided by A. McCluskey. For in vitro assays, the specific Dynamin inhibitors Dynole 34-2, Dyngo 4a and Dynasore (#S8047, Selleckchem, Sapphire Bioscience Pty Ltd, Redfern NSW, Australia) were made as stock solutions in 100% dimethyl sulfoxide (DMSO), which were stored frozen. These compounds were diluted in 50% v/v DMSO/20 mM Tris-HCl pH 7.4 immediately prior to use. For in vivo administration, Dynole 34-2 was resuspended in pre-warmed HRC#5 (Pharmatek, San Diego CA, USA) 1 : 9 phosphate-buffered saline (PBS) 1× pH 7.4 at 37 °C, and sonicated 10 times for 30 s using a Bioruptor Plus (Biogenode) immediately prior to injection at 30 mg/kg, twice daily.
Flow cytometry analyses were performed as previously described[10],[86] on single-cell suspensions stained using BD Pharmingen antibodies (BD Australia, North Ryde NSW, Australia) against mouse CD4 (RM4-5), CD8 (53-6.7), CD25 (PC61.5), CD44 (IM7), CD45.1 (A20), CD45.2 (104), Thy1.2 (53-2.1; #561616), TCRβ (H57-597), CD117 (ACK45), CD135 (A2F10.1), CD150 (TC15-12F12.2; #562373), B220 (RA3-6B2; #563708), CD3 (145-2C11; #563004), CD19 (ID3; #557655), Gr-1 (RB6-8C5; #563299 and #565033), CD11b (M1/70; #563015 and #560455), Ter119 (Ter119; #565523 and #557909), Sca-1 (D7; #558160) and an eBioscience antibody (eBioscience, Invitrogen) against mouse NOTCH1 (22E5). DN3 populations and IL-7R were stained using BioLegend antibodies (Australian Biosearch, Balcatta WA, Australia) against mouse CD28 (E18) and CD127 (A7R34), respectively. Apoptosis was measured using an antibody against AnnexinV (#556420, BD Australia) and the […] Sytox Blue (BD Australia) following the manufacturer’s protocol.
All experiments were pre-approved by the AMREP Animal Ethics Committee. The current study was performed by using the previously described CD2-Lmo2 (Lmo2^Tg) mouse model. Mice cohorts were generated by cross-breeding with the Lck-Notch1-IC9 (N1-ICD^Tg)[45] generously given by T. Hoang[86], the Lck-STAT5b-CA (STAT5-CA^Tg)[88] kindly given by M.P. McCormack, the Mx1-Cre transgenic (Mx)[89] and the ROSA26-YFP Cre-reporter (YFP)[90] mouse strains. All mouse lines were backcrossed onto a C57BL/6J background for ten generations and maintained in pathogen-free conditions according to institutional animal care guidelines.

[2] = tested on: patient-derived ETP-ALL and T-ALL xenografts; assay: Relative viability and LC50 on patient-derived ETP-ALL and T-ALL xenografts, 48 h; format: cell-based, human; parameters: Relative % viable cells: unit of the concentration uncertain; conditions: for CC50: Homo sapiens, read-out: LC50 Dynole 34-2
Text: patient-derived (a ) ETP- ALL1 and (b) T-ALL 2 xenografts treated with increasing concentration of […]
Viability was normalized to vehicle-treated cells with experiments performed in duplicates. Human CD34-positive (CD34+) hematopoietic stem and progenitors from healthy donors (N=3) were used as controls. […]

[3] = thymus of treated Lmo2^Tg mice, absolute numbers vs vehicle (response to reviewers)
[4] = thymus of treated Lmo2^Tg mice, individual mice

CCCCCCCCNC(=O)C(C#N)=Cc1cn(CCCN(C)C)c2ccccc12 [Dynole 34-2, 2-Cyano-N-octyl-3-(1-(3-dimethylaminopropyl)-1H-indol-3-yl)-acrylamide]
reduction in the numbers of DN3a thymocytes ([1]; Lmo2^Tg mice at end of treatment, vs vehicle, in words): tenfold reduction
Absolute numbers DN3a cells ([1]; thymus of 6-week-old Lmo2^Tg mice after two rounds of treatment, individual animals (Fig 4a)): 1380000 and 2260000 and 730000 and 1690000 and 1100000
Absolute numbers DN3a cells ([1]; thymus of 6-week-old Lmo2^Tg mice, 30 mg/kg i.p. twice daily, 5 days on 2 consecutive weeks, individual animals (Fig 3a), 30 mg/kg): 197000 and 290000 and 173000 and 171000 and 222000 and 359000
decrease in DN3a thymocytes when combined with VXL, as compared to VXL alone ([1]; thymus of treated Lmo2^Tg mice (response to reviewers)): 75%
decrease in DN1 cells [1, 3]: 56%
decrease in DN2 cells [1, 3]: 45%
decrease in DN3a cells [1, 3]: 64%
increase in DN4 cells [1, 3]: 134%
Proportion of DN cells (% DN), DN1 [1, 4]: 1.8 % DN and 1.3 % DN and 3.9 % DN and 6.4 % DN and 2.8 % DN
Proportion of DN cells (% DN), DN2 [1, 4]: 1 % DN and 0.2 % DN and 0.4 % DN and 0.1 % DN and 0.5 % DN
Proportion of DN cells (% DN), DN3 [1, 4]: 18.3 % DN and 14.1 % DN and 34.4 % DN and 43.5 % DN and 16.6 % DN
Proportion of DN cells (% DN), DN4 [1, 4]: 79.5 % DN and 84.5 % DN and 61.1 % DN and 49.1 % DN and 80.5 % DN
Relative % viable cells ([2]; ALL8, dose 0.04 (unit uncertain)): 90.4% and 94.4%
Relative % viable cells ([2]; ALL8, dose 0.2 (unit uncertain)): 80.81% and 92.6%
Relative % viable cells ([2]; ALL8, dose 1 (unit uncertain)): 72.11% and 72.9% and 110.2%
Relative % viable cells ([2]; ALL8, dose 5 (unit uncertain)): 59.7% and 59.2%
Relative % viable cells ([2]; ALL8, dose 125 (unit uncertain)): 1.3% and 3.1% and 2.3%
Relative % viable cells ([2]; ALL29, dose 0.04 (unit uncertain)): 101.7% and 96.7%
Relative % viable cells ([2]; ALL29, dose 0.2 (unit uncertain)): 96.7% and 101.5%
Relative % viable cells ([2]; ALL29, dose 5 (unit uncertain)): 40.7% and 42.8%
Relative % viable cells ([2]; ALL29, dose 125 (unit uncertain)): 9.1% and 6.3% and 3%
Relative % viable cells ([2]; ALL33, dose 0.04 (unit uncertain)): 93.7% and 90.9%
Relative % viable cells ([2]; ALL33, dose 0.2 (unit uncertain)): 85.9%
Relative % viable cells ([2]; ALL33, dose 5 (unit uncertain)): 38.4% and 45.6%
Relative % viable cells ([2]; ALL33, dose 25 (unit uncertain)): 25.8% and 17.5%
Relative % viable cells ([2]; ALL33, dose 125 (unit uncertain)): 0%
Relative % viable cells ([2]; ETP1, dose 0.04 (unit uncertain)): 101.2%
Relative % viable cells ([2]; ETP1, dose 0.2 (unit uncertain)): 100.4% and 100%
Relative % viable cells ([2]; ETP1, dose 1 (unit uncertain)): 99.9% and 99.8%
Relative % viable cells ([2]; ETP1, dose 5 (unit uncertain)): 98.2%
Relative % viable cells ([2]; ETP1, dose 25 (unit uncertain)): 36.3% and 35.6%
Relative % viable cells ([2]; ETP1, dose 125 (unit uncertain)): 7% and 0%
Relative % viable cells ([2]; ETP5, dose 0.04 (unit uncertain)): 102.7%
Relative % viable cells ([2]; ETP5, dose 0.2 (unit uncertain)): 95.7% and 97.2%
Relative % viable cells ([2]; ETP5, dose 1 (unit uncertain)): 97.7%
Relative % viable cells ([2]; ETP5, dose 5 (unit uncertain)): 90.9% and 92.8%
Relative % viable cells ([2]; ETP5, dose 25 (unit uncertain)): 25.9% and 13.9%
Relative % viable cells ([2]; ETP5, dose 125 (unit uncertain)): 2.9% and 6.9% and 3.5%
Relative % viable cells ([2]; ETP12, dose 0.04 (unit uncertain)): 107.6% and 104.3%
Relative % viable cells ([2]; ETP12, dose 0.2 (unit uncertain)): 95.8% and 90.7%
Relative % viable cells ([2]; ETP12, dose 5 (unit uncertain)): 77.5%
Relative % viable cells ([2]; ETP12, dose 25 (unit uncertain)): 2.7% and 1.6% and 1.1%
Relative % viable cells ([2]; ETP12, dose 125 (unit uncertain)): 2.6% and 7.9% and 2%
Relative % viable cells ([2]; ETP13, dose 0.04 (unit uncertain)): 91.2% and 89.4%
Relative % viable cells ([2]; ETP13, dose 0.2 (unit uncertain)): 91.8% and 87.5%
Relative % viable cells ([2]; ETP13, dose 1 (unit uncertain)): 90.4% and 102.1%
Relative % viable cells ([2]; ETP13, dose 5 (unit uncertain)): 60.7% and 66.4% and 84.4%
Relative % viable cells ([2]; ETP13, dose 25 (unit uncertain)): 4.2% and 3.5%
Relative % viable cells ([2]; ETP13, dose 125 (unit uncertain)): 1.5% and 2.3% and 0.7%
Relative % viable cells ([2]; ETP14, dose 0.04 (unit uncertain)): 74% and 80.7% and 108.4%
Relative % viable cells ([2]; ETP14, dose 0.2 (unit uncertain)): 80.8% and 85.9%
Relative % viable cells ([2]; ETP14, dose 1 (unit uncertain)): 56.6% and 73.2% and 82.4%
Relative % viable cells ([2]; ETP14, dose 5 (unit uncertain)): 58.1% and 85.7% and 56%
Relative % viable cells ([2]; ETP14, dose 25 (unit uncertain)): 10.8% and 11.5%
CC50 ([2]; ALL8, Relapse, Mature): 5.76 µM
CC50 ([2]; ALL29, Diagnosis, Mature): 4.51 µM
CC50 ([2]; ALL33, Diagnosis, Mature): 2.43 µM
CC50 ([2]; ETP1, Diagnosis, ETP): 19.9 µM
CC50 ([2]; ETP5, Diagnosis, ETP): 49.9 µM
CC50 ([2]; ETP12, Diagnosis, ETP): 4.26 µM
CC50 ([2]; ETP13, Diagnosis, ETP): 7.05 µM
CC50 ([2]; ETP14, Diagnosis, ETP): 5.25 µM
